Measured values as given in publication PMC10709440, “High-throughput ligand profile characterization in novel cell lines expressing seven heterologous insect olfactory receptors for the detection of volatile plant biomarkers” (Scientific Reports, 2023).
Read-outs that look alike come from different tables or passages of the source.

Experiments:
[1] = target: T1, Drosophila OR49b (Drosophila melanogaster, UniProt Q9V6H2); assay: cell-based; settings: for Average response: mean of biological replicates
T1 construct: expressed in transfected cells
T1 sequence (Q9V6H2 1-375): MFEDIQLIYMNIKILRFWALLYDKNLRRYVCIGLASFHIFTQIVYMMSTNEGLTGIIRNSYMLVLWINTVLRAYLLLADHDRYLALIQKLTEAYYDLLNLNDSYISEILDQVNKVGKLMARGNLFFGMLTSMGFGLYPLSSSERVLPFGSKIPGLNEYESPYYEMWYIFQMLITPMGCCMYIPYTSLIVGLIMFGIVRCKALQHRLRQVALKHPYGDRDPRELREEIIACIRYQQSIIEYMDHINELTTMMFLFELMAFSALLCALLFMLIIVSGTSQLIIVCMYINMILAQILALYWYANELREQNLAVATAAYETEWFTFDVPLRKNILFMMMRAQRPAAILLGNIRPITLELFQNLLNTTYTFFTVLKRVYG
T1 sequence (Q9VNB5 1-486 partner): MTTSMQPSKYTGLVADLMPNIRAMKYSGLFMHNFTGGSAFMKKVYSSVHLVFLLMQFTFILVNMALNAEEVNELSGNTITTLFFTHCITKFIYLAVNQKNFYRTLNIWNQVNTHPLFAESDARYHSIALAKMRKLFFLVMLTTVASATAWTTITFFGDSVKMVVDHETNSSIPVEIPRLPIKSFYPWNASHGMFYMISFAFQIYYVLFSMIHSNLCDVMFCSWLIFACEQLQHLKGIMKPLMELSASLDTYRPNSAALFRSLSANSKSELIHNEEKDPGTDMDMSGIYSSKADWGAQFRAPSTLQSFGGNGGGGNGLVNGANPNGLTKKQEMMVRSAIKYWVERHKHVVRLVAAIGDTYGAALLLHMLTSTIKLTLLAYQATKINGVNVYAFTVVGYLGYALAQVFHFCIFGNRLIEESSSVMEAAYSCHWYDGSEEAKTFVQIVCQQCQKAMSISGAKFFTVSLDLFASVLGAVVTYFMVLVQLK
Summary of the method: (§1)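 HEK293 lines stably expressing each Drosophila OR with GCaMP6, doxycycline-induced (1 μg/mL) 48 or 72 h. Fluorescence recorded 5 s baseline then 30 s after VOC injection at pH 7.3; ΔF=(FMAX−F0)/F0, normalized to 50 µM VUAA1 response per line, triplicate wells averaged; concentration series 0.01–100 μM.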

[2] = target: T2, Drosophila OR10a (Drosophila melanogaster, UniProt Q9VYZ1); assay: Calcium ion fluorescence (GCaMP6) assay, OR10a stable HEK293 cell line; assay type: cell-based; settings: for EC50: single-concentration estimate from 100 µM, plate 2019.12.05; for DF norm AVERAGE OR10a: threshold 0.05, below shown as 0
T2 construct: expressed in transfected cells
T2 sequence (Q9VYZ1 1-406): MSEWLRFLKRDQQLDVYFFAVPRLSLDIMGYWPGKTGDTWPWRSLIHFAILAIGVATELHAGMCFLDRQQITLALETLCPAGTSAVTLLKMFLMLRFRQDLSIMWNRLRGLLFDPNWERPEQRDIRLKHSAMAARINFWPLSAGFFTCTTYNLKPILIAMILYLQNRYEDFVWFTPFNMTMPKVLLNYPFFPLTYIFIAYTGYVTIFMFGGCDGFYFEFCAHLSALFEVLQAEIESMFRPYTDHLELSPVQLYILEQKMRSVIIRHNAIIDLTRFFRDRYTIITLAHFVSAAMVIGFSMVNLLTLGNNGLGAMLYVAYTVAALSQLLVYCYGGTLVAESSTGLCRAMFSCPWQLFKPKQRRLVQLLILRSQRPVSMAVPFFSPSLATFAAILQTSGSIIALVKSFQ
T2 sequence (Q9VNB5 1-486 partner): T1 sequence (Q9VNB5 1-486 partner)
Summary of the method: as §1

[3] = OR49b cell line, odorant cc. 1 µM
[4] = OR49b cell line, odorant cc. 10 µM
[5] = OR49b cell line, odorant cc. 100 µM
[6] = HEK293, 1 μM VOC, 50 μM VUAA1 = 1, responses not exceeding 0.05 considered 0, read-out: OR10a Average response (VUAA1-normalized)
[7] = HEK293, 10 μM VOC, 50 μM VUAA1 = 1, responses not exceeding 0.05 considered 0, read-out: OR10a Average response (VUAA1-normalized)
[8] = HEK293, 100 μM VOC, 50 μM VUAA1 = 1, responses not exceeding 0.05 considered 0, read-out: OR10a Average response (VUAA1-normalized)
[9] = 100 µM, OR10a clone G5, single plate 2019.12.05

Compound: CCCCCC(=O)CC [3-octanone]
- activation at 1 µM ([1]; HEK293, VOC concentration 1 μM, read-out: OR49b response (VUAA1-normalized response)): 0%
- activation at 10 µM ([1]; HEK293, VOC concentration 10 μM, read-out: OR49b response (VUAA1-normalized response)): 17%
- activation at 100 µM ([1]; HEK293, VOC concentration 100 μM, read-out: OR49b response (VUAA1-normalized response)): 0%
- Average response [1, 3]: 0.0421
- Average response [1, 4]: 0.17
- Average response [1, 5]: 0.0439
- activation at 1 µM [2, 6]: 2%
- activation at 10 µM [2, 7]: 10%
- activation at 100 µM [2, 8]: 2.65%
- activation at 1 µM ([2]; HEK293, read-out: OR10a response (VUAA1-normalized response), VOC concentration 1 μM): 0%
- activation at 10 µM ([2]; HEK293, read-out: OR10a response (VUAA1-normalized response), VOC concentration 10 μM): 10%
- activation at 100 µM ([2]; HEK293, read-out: OR10a response (VUAA1-normalized response), VOC concentration 100 μM): 0%

Compound: C=C(C)[C@H]1CC=C(C)CC1 [(R)-(+)-limonene]
- DF norm AVERAGE OR49b [1]: 0
- Average response [1, 3]: 0.00
- Average response [1, 4]: 0.00
- Average response [1, 5]: 0.0168
- OR49b response (VUAA1-normalized response) ([1]; VOC concentration 1 μM): 0.00
- OR49b response (VUAA1-normalized response) ([1]; VOC concentration 10 μM): 0.00
- OR49b response (VUAA1-normalized response) ([1]; VOC concentration 100 μM): 0.00
- OR10a Average response (VUAA1-normalized) ([2]; 1 μM VOC, 50 μM VUAA1 = 1, responses not exceeding 0.05 considered 0): 0.00
- OR10a Average response (VUAA1-normalized) ([2]; 10 μM VOC, 50 μM VUAA1 = 1, responses not exceeding 0.05 considered 0): 0.12
- OR10a Average response (VUAA1-normalized) ([2]; 100 μM VOC, 50 μM VUAA1 = 1, responses not exceeding 0.05 considered 0): 0.0152
- OR10a response (VUAA1-normalized response) ([2]; VOC concentration 1 μM): 0.00
- OR10a response (VUAA1-normalized response) ([2]; VOC concentration 10 μM): 0.12
- OR10a response (VUAA1-normalized response) ([2]; VOC concentration 100 μM): 0.00

Compound: COC(=O)c1ccccc1 [methyl benzoate]
- OR49b response (VUAA1-normalized) at 1 μM ([1]; OR49b cell line, VOC concentration 1 μM): 0.13
- OR49b response (VUAA1-normalized) at 10 μM ([1]; OR49b cell line, VOC concentration 10 μM): 0.00
- OR49b response (VUAA1-normalized) at 100 μM ([1]; OR49b cell line, VOC concentration 100 μM): 0.00
- Average response [1, 3]: 0.13
- Average response [1, 4]: 0.00
- Average response [1, 5]: 0.05
- DF norm AVERAGE OR49b ([1]; ligand concentration 1 (unit not given), threshold 0.05, below shown as 0): 0.1337
- DF norm AVERAGE OR49b ([1]; ligand concentration 10 (unit not given), threshold 0.05, below shown as 0): 0
- DF norm AVERAGE OR49b ([1]; ligand concentration 100 (unit not given), threshold 0.05, below shown as 0): 0
- DF norm, all technical replicates [2, 9]: 0.8079
- DF norm, outlier technical replicates removed [2, 9]: 0.8079
- DF, outlier technical replicates removed [2, 9]: 1.408
- DF, all technical replicates ([2]; 100 µM, OR10a clone G5, single plate 2019.12.05, xc+0.1%DMSO): 1.408
- EC50 ([2]; EC50, all technical replicates, OR10a clone G5): 23.8 µM
- EC50 ([2]; EC50, outlier technical replicates removed, OR10a clone G5): 23.8 µM
- activation at 1 µM [2, 6]: 31%
- activation at 10 µM [2, 7]: 64%
- activation at 100 µM [2, 8]: 67%
- OR10a response (VUAA1-normalized) at 1 μM ([2]; OR10a cell line, VOC concentration 1 μM): 0.31
- OR10a response (VUAA1-normalized) at 10 μM ([2]; OR10a cell line, VOC concentration 10 μM): 0.64
- OR10a response (VUAA1-normalized) at 100 μM ([2]; OR10a cell line, VOC concentration 100 μM): 0.67
- DF norm AVERAGE OR10a ([2]; ligand concentration 1 (unit not given)): 0.3063
- DF norm AVERAGE OR10a ([2]; ligand concentration 10 (unit not given)): 0.6425
- DF norm AVERAGE OR10a ([2]; ligand concentration 100 (unit not given)): 0.6719
